# Activity calls are given as the source filed them. No cut-off for these calls is given here.
# Key:
# Plasmodium falciparum [1] = assay: Resistance index, ratio of EC50 for erythrocytic stage of Plasmodium falciparum Dd2 harboring 20S beta6 proteasome A117D mutant to EC50 erythrocytic stage of Plasmodium falciparum Dd2
# Plasmodium falciparum [2] = assay: Resistance index, ratio of EC50 for erythrocytic stage of Plasmodium falciparum Dd2 harboring 20S beta5 proteasome A49S mutant to EC50 erythrocytic stage of Plasmodium falciparum Dd2; format: functional
# Plasmodium falciparum [3] = assay: Antimalarial activity against erythrocytic stage of Plasmodium falciparum Dd2 harboring 20S beta5 proteasome A49S mutant measured after 72 hrs by SYBR green dye based fluorescence assay; format: functional, organism-based; conditions: Dd2, 72 h
# Plasmodium falciparum [4] = assay: Antimalarial activity against erythrocytic stage of Plasmodium falciparum Dd2 measured after 72 hrs by SYBR green dye based fluorescence assay; format: functional, organism-based; conditions: Dd2, 72 h
# Plasmodium falciparum [5] = assay: Antimalarial activity against erythrocytic stage of Plasmodium falciparum Dd2 harboring 20S beta2 proteasome A117D mutant measured after 72 hrs by SYBR green dye based fluorescence assay; format: functional, organism-based; conditions: Dd2, 72 h
# [6] = target: T1, Proteasome subunit beta type-8 (Homo sapiens, UniProt P28062); assay: Inhibition of human beta5 20S immunoproteasome using Ac-ANW-AMC as substrate
# T1 sequence (P28062 whole entry): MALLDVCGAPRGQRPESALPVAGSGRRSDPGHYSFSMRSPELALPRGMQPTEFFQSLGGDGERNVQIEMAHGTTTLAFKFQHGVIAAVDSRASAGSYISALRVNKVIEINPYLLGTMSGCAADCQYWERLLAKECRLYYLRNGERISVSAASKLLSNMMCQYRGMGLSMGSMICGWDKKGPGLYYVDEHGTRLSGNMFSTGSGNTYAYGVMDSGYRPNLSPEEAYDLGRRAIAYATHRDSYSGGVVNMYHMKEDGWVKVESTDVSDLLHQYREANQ
# HepG2 = assay: Cytotoxicity against human HepG2 cells; format: cell-based
# [7] = test system: beta5 subunit of human 20S constitutive proteasome; assay: Selectivity ratio of IC50 for human beta5 20S constitutive proteasome to IC50 for Plasmodium falciparum 20S proteasome beta5 subunit; format: toxicity; conditions: read-out: Ratio IC50
# [8] = test system: beta5 subunit of human 20S immunoproteasome; assay: Selectivity ratio of IC50 for human beta5 20S immunoproteasome to IC50 for Plasmodium falciparum 20S proteasome beta5 subunit; format: toxicity; conditions: read-out: Ratio IC50
# Plasmodium falciparum [9] = assay: Antimalarial activity against erythrocytic stage of Plasmodium falciparum 3D7 measured after 72 hrs by SYBR green dye based fluorescence assay; format: functional, organism-based; conditions: 3D7, 72 h
# [10] = Inhibition of Plasmodium falciparum 20S proteasome beta5 subunit using suc-LLVY-AMC as substrate in presence of beta2 inhibitor WLW-VS
# [11] = target: T2, Proteasome Macropain subunit MB1 (Homo sapiens, UniProt P28074); assay: Inhibition of human beta5 20S constitutive proteasome using suc-LLVY-AMC as substrate
# T2 sequence (P28074 whole entry): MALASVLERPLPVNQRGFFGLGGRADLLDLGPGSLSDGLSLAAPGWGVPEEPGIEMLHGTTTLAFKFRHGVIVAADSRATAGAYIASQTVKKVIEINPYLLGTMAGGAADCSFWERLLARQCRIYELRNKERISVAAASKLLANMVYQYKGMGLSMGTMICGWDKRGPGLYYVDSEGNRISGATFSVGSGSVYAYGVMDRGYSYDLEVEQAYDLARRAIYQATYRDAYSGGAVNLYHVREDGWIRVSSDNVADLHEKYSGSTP
# Karpas-1106P = assay: Cytotoxicity against human KARPAS1106P cells; format: cell-based
# [12] = Clearance in mouse liver microsomes; format: ADME, Microsome; conditions: read-out: CLH
# [13] = Clearance in human liver microsomes; format: ADME, Microsome; conditions: read-out: CLH
# [14] = Clearance in rat liver microsomes; format: ADME, Microsome; conditions: read-out: CLH
# Plasmodium falciparum [15] = assay: Inhibition of MV151 binding to Plasmodium falciparum 20S proteasome beta1 subunit preincubated for 1 hr followed by MV151 addition and measured after 1 hr by fluorescence assay
# Plasmodium falciparum [16] = assay: Inhibition of MV151 binding to Plasmodium falciparum 20S proteasome beta2 subunit preincubated for 1 hr followed by MV151 addition and measured after 1 hr by fluorescence assay
# [17] = Permeability of the compound at pH 7.4 by PAMPA; format: ADME; conditions: read-out: permeability
Compound,Ratio EC50 (Plasmodium falciparum [1]),Ratio EC50 (Plasmodium falciparum [2]),EC50 (Plasmodium falciparum [3]) [nM],EC50 (Plasmodium falciparum [4]) [nM],EC50 (Plasmodium falciparum [5]) [nM],IC50 [6] [nM],EC50 (HepG2) [nM],selectivity ratio [7],selectivity ratio [8],EC50 (Plasmodium falciparum [9]) [nM],IC50 [10] [nM],IC50 [11] [nM],EC50 (Karpas-1106P) [nM],microsomal CLint [12] [µL/min/mg],microsomal CLint [13] [µL/min/mg],microsomal CLint [14] [µL/min/mg],inhibition (Plasmodium falciparum [15]),inhibition (Plasmodium falciparum [16]),Papp [17] [×10⁻⁶ cm/s]
Cc1cc(C(=O)N[C@@H](CC(=O)NC(C)(C)C)C(=O)NCCNC(=O)c2cccc(-n3cccn3)c2)no1,10,>100,> 2770,27.6,279,,,,,,,,,,,,,,
Cc1ccc(S(=O)(=O)N[C@@H](CC(=O)NC(C)(C)C)C(=O)NCCNC(=O)c2cc(Cl)ccc2Cl)cc1,,,,,,5650,> 11000,> 507,28.7,118,197,> 100000,> 11100,,,,,,
Cc1ccc(S(=O)(=O)N[C@@H](CC(=O)NC(C)(C)C)C(=O)NCCNC(=O)c2c(O)cccc2F)cc1,,,,,,72.7,> 11000,13,1.8,83.7,40.5,540,> 11100,,,,,,
Cc1ccc(S(=O)(=O)N[C@@H](CC(=O)NC(C)(C)C)C(=O)NCCNC(=O)c2cccc(C(F)(F)F)c2)cc1,,,,,,763,> 11000,148,3.1,167,250,37100,> 11100,,,,,,
Cc1ccc(S(=O)(=O)N[C@@H](CC(=O)NC(C)(C)C)C(=O)NCCNC(=O)c2cccc(O)c2)cc1,,,,,,475,> 11000,195,21,15.4,22.4,4380,> 11100,,,,,,
Cc1ccc(S(=O)(=O)N[C@@H](CC(=O)NC(C)(C)C)C(=O)NCCNC(=O)c2cccc(C(C)C)c2)cc1,,,,,,200,> 11000,225,5,98.5,40.4,9120,> 11100,,,,,,
Cc1ccc(S(=O)(=O)N[C@@H](CC(=O)NC(C)(C)C)C(=O)NCCNC(=O)c2cccc(C#N)c2)cc1,,,,,,4690,> 11000,103,12,132,390,40200,> 11100,,,,,,
Cc1ccc(S(=O)(=O)N[C@@H](CC(=O)NC(C)(C)C)C(=O)NCCNC(=O)c2ccc(F)cc2)cc1,,,,,,179,> 11000,55,1.5,50.9,121,6700,> 11100,49,149,81,,,
Cc1ccc(S(=O)(=O)N[C@@H](CC(=O)NC(C)(C)C)C(=O)NCCNC(=O)Nc2ccccc2)cc1,,,,,,2090,> 11000,> 3.9,0.8,> 2770,2580,> 100000,> 11100,,,,,,
Cc1ccc(S(=O)(=O)N[C@@H](CC(=O)NC(C)(C)C)C(=O)NCCNC(=O)c2cc(-c3ccccc3F)ccc2F)cc1,,,,,,4,,,,1.6,,110,,,,,inactive,inactive,
COc1cc(OC)cc(C(=O)NCCNC(=O)[C@H](CC(=O)NC(C)(C)C)NS(=O)(=O)c2ccc(C)cc2)c1,,,,,,9970,> 11000,> 24.7,2.5,> 2770,4060,> 100000,> 11100,,,,,,
Cc1ccc(S(=O)(=O)N[C@@H](CC(=O)NC(C)(C)C)C(=O)NCCNC(=O)c2cc(C)ccn2)cc1,,,,,,3110,> 11000,> 156,4.9,227,639,> 100000,> 11100,,,,,,
Cc1ccc(S(=O)(=O)N[C@@H](CC(=O)NC(C)(C)C)C(=O)NCCNC(=O)c2cc(Cl)ccn2)cc1,,,,,,3560,> 11000,> 110,3.9,283,911,> 100000,> 11100,,,,,,
Cc1ccc(S(=O)(=O)N[C@@H](CC(=O)NC(C)(C)C)C(=O)NCCNC(=O)c2ccc(F)c(F)c2)cc1,,,,,,195,> 11000,48,1.5,68.8,126,6040,> 11100,,,,,,
CC(C)C[C@H](NC(=O)[C@H](Cc1ccccc1)NC(=O)c1cnccn1)B(O)O [BORTEZOMIB],0.25,2.4,1020,419,106,,,,,,,,,,,,,,
COc1cccc(C(=O)NCCNC(=O)[C@H](CC(=O)NC(C)(C)C)NS(=O)(=O)c2ccc(C)cc2)c1,25,101,252,2.5,63.4,38,> 11000,57,4.3,2.3,8.9,506,> 11100,142,202,115,,,15.9
Cc1ccc(S(=O)(=O)N[C@@H](CC(=O)NC(C)(C)C)C(=O)NCCNC(=O)c2ccc(Cl)cc2)cc1,,,,,,38,> 11000,44,0.3,130,113,5000,> 11100,,,,,,
CC(C)(C)NC(=O)C[C@H](NC(=O)CCc1ccccc1)C(=O)NCCNC(=O)c1cccc(-c2ccccc2)c1,130,541,1350,2.5,326,,,,,,,,,,,,,,
Cc1ccc(S(=O)(=O)N[C@@H](CC(=O)NC(C)(C)C)C(=O)NCCNC(=O)c2ccccn2)cc1,,,,,,2090,> 11000,27,1.9,> 2770,1090,29400,> 11100,,,,,,
Cc1ccc(S(=O)(=O)N[C@@H](CC(=O)NC(C)(C)C)C(=O)NCCNC(=O)NCc2ccccc2)cc1,,,,,,2350,> 11000,16.8,0.85,2140,2770,46600,> 11100,,,,,,
Cc1ccc(S(=O)(=O)N[C@@H](CC(=O)NC(C)(C)C)C(=O)NCCNC(=O)c2ccccc2Cl)cc1,,,,,,1400,> 11000,123,6.6,98,211,26000,> 11100,,,,,,
Cc1ccc(S(=O)(=O)N[C@@H](CC(=O)NC(C)(C)C)C(=O)NCCNC(=O)c2ccccc2O)cc1,,,,,,24,> 11000,67,4,9.6,6.1,409,> 11100,,,,,,
CC(C)C[C@@H](/C=C/S(C)(=O)=O)NC(=O)[C@H](CC(C)C)NC(=O)[C@H](Cc1c[nH]c2ccccc12)NC(=O)CN1CCOCC1,0.08,0.28,26,91.6,7.3,,,,,,,,,,,,,,
Cc1ccc(S(=O)(=O)N[C@@H](CC(=O)NC(C)(C)C)C(=O)NCCNC(=O)c2cccc(F)c2)cc1,,,,,,128,> 11000,74,4.3,11.7,29.6,2200,> 11100,,,,,,
Cc1ccc(S(=O)(=O)N[C@@H](CC(=O)NC(C)(C)C)C(=O)NCCNS(=O)(=O)c2ccccc2)cc1,,,,,,2890,> 11000,> 6.6,0.2,> 2770,15100,> 100000,> 11100,,,,,,

# Source: ChEMBL document CHEMBL4364250, “Improvement of Asparagine Ethylenediamines as Anti-malarial Plasmodium-Selective Proteasome Inhibitors” (J Med Chem, 2019)
